What was measured:
[1] = target: T1, RSK1(Kin.Dom.1-N-terminal) (Homo sapiens, UniProt Q15418); experiment: KinomeScan; assay type: binding; conditions: 1uM
T1 construct: RSK1(Kin.Dom.1-N-terminal); purchased DiscoveRx KINOMEscan

PFTAIRE2 = target: T2, PFTAIRE2 (Homo sapiens, UniProt Q96Q40); experiment: KinomeScan; assay type: binding; conditions: 1uM
T2 construct: purchased DiscoveRx KINOMEscan

PHKG2 = target: T3, PHKG2 (Homo sapiens, UniProt P15735); experiment: KinomeScan; assay type: binding; conditions: 1uM
T3 construct: purchased DiscoveRx KINOMEscan

p38-alpha = target: T4, p38-alpha (Homo sapiens, UniProt Q16539); experiment: KinomeScan; assay type: binding; conditions: 1uM
T4 construct: purchased DiscoveRx KINOMEscan
T4 sequence (Q16539 whole entry): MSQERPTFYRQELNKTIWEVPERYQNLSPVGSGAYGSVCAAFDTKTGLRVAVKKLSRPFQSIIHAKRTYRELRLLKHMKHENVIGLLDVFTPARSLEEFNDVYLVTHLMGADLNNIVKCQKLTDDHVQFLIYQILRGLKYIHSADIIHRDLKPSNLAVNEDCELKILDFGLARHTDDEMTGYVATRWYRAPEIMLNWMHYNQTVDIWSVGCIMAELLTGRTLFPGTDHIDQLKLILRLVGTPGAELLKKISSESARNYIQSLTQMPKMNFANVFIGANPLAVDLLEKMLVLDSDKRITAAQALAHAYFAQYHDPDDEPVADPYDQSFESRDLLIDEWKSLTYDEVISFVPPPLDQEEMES

MRCKA = target: T5, MRCKA (Homo sapiens, UniProt Q5VT25); experiment: KinomeScan; assay type: binding; conditions: 1uM
T5 construct: purchased DiscoveRx KINOMEscan
T5 sequence (Q5VT25 whole entry): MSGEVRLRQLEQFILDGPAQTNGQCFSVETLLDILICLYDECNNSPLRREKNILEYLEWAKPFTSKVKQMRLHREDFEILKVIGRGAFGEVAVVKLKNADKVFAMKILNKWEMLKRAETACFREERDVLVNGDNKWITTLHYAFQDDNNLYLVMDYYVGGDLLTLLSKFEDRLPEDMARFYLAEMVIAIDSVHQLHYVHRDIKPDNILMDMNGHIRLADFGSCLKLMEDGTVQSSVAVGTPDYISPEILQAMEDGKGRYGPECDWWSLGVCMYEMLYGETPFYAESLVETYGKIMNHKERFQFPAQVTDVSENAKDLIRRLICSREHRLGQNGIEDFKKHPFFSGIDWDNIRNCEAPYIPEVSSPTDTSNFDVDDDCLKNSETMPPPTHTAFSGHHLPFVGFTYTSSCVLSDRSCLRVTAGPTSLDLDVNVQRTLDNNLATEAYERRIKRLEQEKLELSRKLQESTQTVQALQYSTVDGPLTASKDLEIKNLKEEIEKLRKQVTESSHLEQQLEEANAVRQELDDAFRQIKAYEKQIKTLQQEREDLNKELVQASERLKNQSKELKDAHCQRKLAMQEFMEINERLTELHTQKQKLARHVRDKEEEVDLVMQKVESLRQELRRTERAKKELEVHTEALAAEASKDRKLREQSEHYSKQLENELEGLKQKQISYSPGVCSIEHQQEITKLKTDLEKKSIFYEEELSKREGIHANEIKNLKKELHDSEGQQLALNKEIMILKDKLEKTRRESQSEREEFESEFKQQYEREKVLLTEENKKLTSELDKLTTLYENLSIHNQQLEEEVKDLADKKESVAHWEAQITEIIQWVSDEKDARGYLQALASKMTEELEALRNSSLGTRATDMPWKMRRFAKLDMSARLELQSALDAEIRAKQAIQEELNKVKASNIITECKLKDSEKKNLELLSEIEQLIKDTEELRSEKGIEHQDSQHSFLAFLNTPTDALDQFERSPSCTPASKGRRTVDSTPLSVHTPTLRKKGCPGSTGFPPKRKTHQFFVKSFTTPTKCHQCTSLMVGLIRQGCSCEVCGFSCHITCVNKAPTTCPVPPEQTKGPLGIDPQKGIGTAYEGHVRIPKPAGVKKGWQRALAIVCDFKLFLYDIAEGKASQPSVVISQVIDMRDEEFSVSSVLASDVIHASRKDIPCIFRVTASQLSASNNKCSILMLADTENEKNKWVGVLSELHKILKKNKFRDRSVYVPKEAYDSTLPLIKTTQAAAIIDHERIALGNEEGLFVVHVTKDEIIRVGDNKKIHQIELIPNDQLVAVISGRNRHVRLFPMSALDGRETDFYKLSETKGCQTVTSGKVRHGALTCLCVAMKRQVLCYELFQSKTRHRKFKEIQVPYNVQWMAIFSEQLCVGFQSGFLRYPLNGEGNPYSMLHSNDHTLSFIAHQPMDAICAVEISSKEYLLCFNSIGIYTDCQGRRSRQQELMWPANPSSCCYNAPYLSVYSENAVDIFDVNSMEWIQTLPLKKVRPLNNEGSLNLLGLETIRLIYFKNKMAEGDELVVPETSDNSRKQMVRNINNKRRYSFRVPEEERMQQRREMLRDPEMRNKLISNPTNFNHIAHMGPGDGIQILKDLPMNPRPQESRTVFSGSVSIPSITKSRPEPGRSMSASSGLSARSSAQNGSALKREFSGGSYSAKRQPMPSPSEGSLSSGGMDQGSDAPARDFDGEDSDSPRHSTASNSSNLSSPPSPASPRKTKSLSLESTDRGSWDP

LTK = target: T6, LTK (Homo sapiens, UniProt P29376); experiment: KinomeScan; assay type: binding; conditions: 1uM
T6 construct: purchased DiscoveRx KINOMEscan
T6 sequence (P29376 17-864): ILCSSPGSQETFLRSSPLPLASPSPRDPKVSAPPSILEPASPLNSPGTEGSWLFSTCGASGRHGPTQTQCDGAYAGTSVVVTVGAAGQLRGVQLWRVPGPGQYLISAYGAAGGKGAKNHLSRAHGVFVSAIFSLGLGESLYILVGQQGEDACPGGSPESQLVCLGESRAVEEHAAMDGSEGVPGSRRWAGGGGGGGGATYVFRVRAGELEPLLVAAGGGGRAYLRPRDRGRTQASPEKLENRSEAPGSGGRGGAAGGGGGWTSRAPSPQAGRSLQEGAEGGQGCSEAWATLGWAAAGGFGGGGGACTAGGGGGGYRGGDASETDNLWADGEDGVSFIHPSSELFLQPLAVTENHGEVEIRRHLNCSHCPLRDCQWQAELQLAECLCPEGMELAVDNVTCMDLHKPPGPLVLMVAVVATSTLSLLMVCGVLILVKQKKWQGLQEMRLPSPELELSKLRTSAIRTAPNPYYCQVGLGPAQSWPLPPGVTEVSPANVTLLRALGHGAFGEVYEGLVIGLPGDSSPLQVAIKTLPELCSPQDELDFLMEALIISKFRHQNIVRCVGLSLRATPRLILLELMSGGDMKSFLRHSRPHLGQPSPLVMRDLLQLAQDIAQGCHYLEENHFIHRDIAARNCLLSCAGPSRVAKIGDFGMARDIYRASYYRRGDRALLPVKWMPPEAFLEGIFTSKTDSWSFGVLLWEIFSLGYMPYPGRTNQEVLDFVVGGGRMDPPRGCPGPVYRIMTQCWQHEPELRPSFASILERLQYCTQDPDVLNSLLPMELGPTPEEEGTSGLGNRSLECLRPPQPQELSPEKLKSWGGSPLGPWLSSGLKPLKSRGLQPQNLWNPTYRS

Namalwa = experiment: Anti-proliferative assay; assay type: cell-based; conditions: Homo sapiens, Burrkit lymphoma, 72 hours, CellTiter-Glo
Protocol: (§1) Cells were grown in 96-well culture plates (3000-4000/well). […] Cell proliferation was determined after treatment with compounds for 72 hours. Cell viability was measured using the CellTiter–Glo Assay Kit (Promega, USA), according to the manufacturer's instructions, and luminescence was measured in a multi-label reader (Envision, PerkinElmer, USA). Data were normalized to control groups (DMSO) and represented by the mean of three independent measurements with standard error <20%. GI50 values were calculated using Prism 5.0 (GraphPad Software, San Diego, CA).

MOLM-13 = experiment: Anti-proliferative assay; assay type: cell-based; conditions: Homo sapiens; MOLM-13, AML-M5; 72 hours, CellTiter-Glo
Protocol: as §1

SKM-1 = experiment: Anti-proliferative assay; assay type: cell-based; conditions: Homo sapiens; SKM-1, AML-M5; 72 hours, CellTiter-Glo
Protocol: as §1

PF382 = experiment: Anti-proliferative assay; assay type: cell-based; conditions: Homo sapiens, PF-382; PF382, ALL; 72 hours, CellTiter-Glo
Protocol: as §1

U937 = experiment: Anti-proliferative assay; assay type: cell-based; conditions: Homo sapiens, U-937; U937, AML; 72 hours, CellTiter-Glo
Protocol: as §1

MEC-1 = experiment: Anti-proliferative assay; assay type: cell-based; conditions: Homo sapiens, MEC1; MEC-1, CLL; 72 hours, CellTiter-Glo
Protocol: as §1

OCI-AML-3 = experiment: Anti-proliferative assay; assay type: cell-based; conditions: Homo sapiens; OCI-AML-3, AML-M4; 72 hours, CellTiter-Glo
Protocol: as §1

HT = experiment: Anti-proliferative assay; assay type: cell-based; conditions: Homo sapiens, B-cell lymphoma, 72 hours, CellTiter-Glo
Protocol: as §1

HL-60 = experiment: Anti-proliferative assay; assay type: cell-based; conditions: Homo sapiens; HL-60, AML-M2; 72 hours, CellTiter-Glo
Protocol: as §1

HEL = experiment: Anti-proliferative assay; assay type: cell-based; conditions: Homo sapiens, AML-M6, 72 hours, CellTiter-Glo
Protocol: as §1

AMO-1 = experiment: Anti-proliferative assay; assay type: cell-based; conditions: Homo sapiens, AMO1; AMO-1, MM; 72 hours, CellTiter-Glo
Protocol: as §1

OCI-AML-2 = experiment: Anti-proliferative assay; assay type: cell-based; conditions: Homo sapiens, OCI-AML2; OCI-AML-2, AML-M4; 72 hours, CellTiter-Glo
Protocol: as §1

NOMO-1 = experiment: Anti-proliferative assay; assay type: cell-based; conditions: Homo sapiens; NOMO-1, AML-M5; 72 hours, CellTiter-Glo
Protocol: as §1

NALM-6 = experiment: Anti-proliferative assay; assay type: cell-based; conditions: Homo sapiens, 72 hours, CellTiter-Glo
Protocol: as §1

Ramos(new) = experiment: Anti-proliferative assay; assay type: cell-based; conditions: Homo sapiens, Burrkit lymphoma, 72 hours, CellTiter-Glo
Protocol: as §1

MEC-2 = experiment: Anti-proliferative assay; assay type: cell-based; conditions: Homo sapiens, MEC2; MEC-2, CLL; 72 hours, CellTiter-Glo
Protocol: as §1

RPMI8226 = experiment: Anti-proliferative assay; assay type: cell-based; conditions: Homo sapiens, RPMI-8226; RPMI8226, MM; 72 hours, CellTiter-Glo
Protocol: as §1

JVM-2 = experiment: Anti-proliferative assay; assay type: cell-based; conditions: Homo sapiens; JVM-2, Mantle cell lymphoma; 72 hours, CellTiter-Glo
Protocol: as §1

MV4-11 = experiment: Anti-proliferative assay; assay type: cell-based; conditions: Homo sapiens; MV4-11, AML; 72 hours, CellTiter-Glo
Protocol: as §1

MOLM-14 = experiment: Anti-proliferative assay; assay type: cell-based; conditions: Homo sapiens; MOLM-14, AML-M5; 72 hours, CellTiter-Glo
Protocol: as §1

PCTK3 = target: T7, PCTK3 (Homo sapiens, UniProt Q07002); experiment: KinomeScan; assay type: binding; conditions: 1uM
T7 construct: purchased DiscoveRx KINOMEscan
T7 sequence (Q07002 whole entry): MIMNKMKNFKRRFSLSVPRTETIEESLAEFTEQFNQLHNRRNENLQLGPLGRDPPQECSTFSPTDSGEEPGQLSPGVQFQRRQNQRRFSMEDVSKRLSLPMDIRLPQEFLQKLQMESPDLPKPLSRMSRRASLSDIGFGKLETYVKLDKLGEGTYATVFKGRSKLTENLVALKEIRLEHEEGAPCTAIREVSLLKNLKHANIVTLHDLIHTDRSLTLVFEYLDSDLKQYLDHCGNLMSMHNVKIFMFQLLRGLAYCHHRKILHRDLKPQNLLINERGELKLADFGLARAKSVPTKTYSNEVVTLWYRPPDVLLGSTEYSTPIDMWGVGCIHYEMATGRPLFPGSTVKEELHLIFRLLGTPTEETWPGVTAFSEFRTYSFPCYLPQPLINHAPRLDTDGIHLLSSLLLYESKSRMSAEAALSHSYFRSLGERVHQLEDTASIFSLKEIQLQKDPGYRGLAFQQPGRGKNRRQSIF

S6K phosphorylation = experiment: Signaling pathway effect examination (western blotting); assay type: cell-based, human; parameters: dose or concentration left out as unconfirmed; conditions: MOLM13, HT, Namalwa, MEC-1, MEC-2 cells
Protocol: The cells were collected and lysed, and cell lysates were analyzed by western blotting.

ROS1 = target: T8, ROS1 (Homo sapiens, UniProt P08922); experiment: KinomeScan; assay type: binding; conditions: 1uM
T8 construct: purchased DiscoveRx KINOMEscan

MAP3K15 = target: T9, MAP3K15 (Homo sapiens, UniProt Q6ZN16); experiment: KinomeScan; assay type: binding; conditions: 1uM
T9 construct: purchased DiscoveRx KINOMEscan

CAMKK1 = target: T10, CAMKK1 (Homo sapiens, UniProt Q8N5S9); experiment: KinomeScan; assay type: binding; conditions: 1uM
T10 construct: purchased DiscoveRx KINOMEscan

MYLK4 = target: T11, MYLK4 (Homo sapiens, UniProt Q86YV6); experiment: KinomeScan; assay type: binding; conditions: 1uM
T11 construct: purchased DiscoveRx KINOMEscan

MELK = target: T12, MELK (Homo sapiens, UniProt Q14680); experiment: KinomeScan; assay type: binding; conditions: 1uM
T12 construct: purchased DiscoveRx KINOMEscan
T12 sequence (Q14680 whole entry): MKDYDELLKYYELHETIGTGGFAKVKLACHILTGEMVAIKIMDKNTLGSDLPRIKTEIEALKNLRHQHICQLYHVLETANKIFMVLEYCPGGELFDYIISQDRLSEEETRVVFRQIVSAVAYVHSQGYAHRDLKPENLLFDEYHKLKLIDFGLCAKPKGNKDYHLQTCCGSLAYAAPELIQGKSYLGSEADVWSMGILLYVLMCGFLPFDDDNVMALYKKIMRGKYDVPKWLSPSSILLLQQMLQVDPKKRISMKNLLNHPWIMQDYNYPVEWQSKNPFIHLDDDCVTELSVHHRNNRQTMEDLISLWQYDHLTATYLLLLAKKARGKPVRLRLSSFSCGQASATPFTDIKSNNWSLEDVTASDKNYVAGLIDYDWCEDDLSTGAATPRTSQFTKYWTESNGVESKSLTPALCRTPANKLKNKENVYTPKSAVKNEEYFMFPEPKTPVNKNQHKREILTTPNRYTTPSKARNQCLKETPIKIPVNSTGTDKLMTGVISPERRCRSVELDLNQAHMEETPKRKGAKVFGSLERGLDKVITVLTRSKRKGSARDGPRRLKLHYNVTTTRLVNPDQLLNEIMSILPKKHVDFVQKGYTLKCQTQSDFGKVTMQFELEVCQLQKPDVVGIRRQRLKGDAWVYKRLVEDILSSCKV

RIOK1 = target: T13, RIOK1 (Homo sapiens, UniProt Q9BRS2); experiment: KinomeScan; assay type: binding; conditions: 1uM
T13 construct: purchased DiscoveRx KINOMEscan

ERK1 = target: T14, ERK1 (Homo sapiens, UniProt P27361); experiment: KinomeScan; assay type: binding; conditions: 1uM
T14 construct: purchased DiscoveRx KINOMEscan

MEK6 = target: T15, MEK6 (Homo sapiens, UniProt P52564); experiment: KinomeScan; assay type: binding; conditions: 1uM
T15 construct: purchased DiscoveRx KINOMEscan

T2 sequence (Q96Q40 whole entry): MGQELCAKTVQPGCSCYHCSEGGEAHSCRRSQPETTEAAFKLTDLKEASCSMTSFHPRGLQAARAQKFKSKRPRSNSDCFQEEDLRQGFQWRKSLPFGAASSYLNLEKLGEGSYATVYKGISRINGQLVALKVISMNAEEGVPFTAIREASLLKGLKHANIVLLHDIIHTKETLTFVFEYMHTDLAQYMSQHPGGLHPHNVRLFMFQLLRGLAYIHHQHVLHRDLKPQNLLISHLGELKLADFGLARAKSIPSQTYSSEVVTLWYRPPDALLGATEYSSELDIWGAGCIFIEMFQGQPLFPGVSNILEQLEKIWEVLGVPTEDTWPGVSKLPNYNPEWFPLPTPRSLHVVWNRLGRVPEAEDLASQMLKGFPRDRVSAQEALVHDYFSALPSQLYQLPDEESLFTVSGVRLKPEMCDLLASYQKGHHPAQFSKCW
T1 sequence (Q15418 1-391 limits assumed): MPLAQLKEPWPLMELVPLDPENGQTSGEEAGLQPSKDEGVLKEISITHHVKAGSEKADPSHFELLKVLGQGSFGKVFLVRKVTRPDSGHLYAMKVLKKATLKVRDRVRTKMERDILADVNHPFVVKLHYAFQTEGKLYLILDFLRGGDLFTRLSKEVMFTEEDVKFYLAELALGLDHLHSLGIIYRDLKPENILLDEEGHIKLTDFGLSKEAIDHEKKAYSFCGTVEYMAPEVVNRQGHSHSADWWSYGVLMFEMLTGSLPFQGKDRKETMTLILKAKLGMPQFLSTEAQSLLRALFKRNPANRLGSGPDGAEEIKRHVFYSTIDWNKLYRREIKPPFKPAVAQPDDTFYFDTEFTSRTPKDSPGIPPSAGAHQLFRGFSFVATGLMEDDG

In the case of `Cc1nc(NC(=O)[C@@H](N)C(C)C)sc1-c1cnc(Cl)c(NS(=O)(=O)c2ccccc2)c1` [PI3KD-IN-015], the “KinomeScan RSK1(Kin.Dom.1-N-terminal)” value [1] is reported as 74, the “KinomeScan PFTAIRE2” value (PFTAIRE2) is reported as 100 and the “KinomeScan PHKG2” value (PHKG2) is reported as 91. The “KinomeScan p38-alpha” value (p38-alpha) was 100, the “KinomeScan MRCKA” value (MRCKA) was 94 and the “KinomeScan LTK” value (LTK) was 100. The GI50 (Namalwa) was 1400 nM, the GI50 (MOLM-13) was 940 nM and the GI50 (SKM-1) was 2600 nM. The GI50 (PF382) was 3.2 µM, the GI50 (U937) was 5.1 µM and the GI50 (MEC-1) was > 10 µM. For the same compound, the GI50 (OCI-AML-3) was 3.1 µM, the GI50 (HT) was 860 nM and the GI50 (HL-60) was 2300 nM. The GI50 (HEL) was > 10 µM, the GI50 (AMO-1) was 1100 nM and the GI50 (OCI-AML-2) was 1800 nM. It also gave a GI50 (NOMO-1) of 1400 nM, a GI50 (NALM-6) of 1800 nM and a GI50 (Ramos(new)) of 2000 nM. The GI50 (MEC-2) was > 10 µM, the GI50 (RPMI8226) was 2500 nM and the GI50 (JVM-2) was > 10 µM. For the same compound, the GI50 (MV4-11) was 1900 nM, the GI50 (MOLM-14) was 2200 nM and the “KinomeScan PCTK3” value (PCTK3) was 100. For the same compound, the S6K phosphorylation (S6K phosphorylation) was “significantly decreased”, the “KinomeScan ROS1” value (ROS1) was 99 and the “KinomeScan MAP3K15” value (MAP3K15) was 80. The “KinomeScan CAMKK1” value (CAMKK1) was 100, the “KinomeScan MYLK4” value (MYLK4) was 80 and the “KinomeScan MELK” value (MELK) was 90. For the same compound, the “KinomeScan RIOK1” value (RIOK1) was 94, the “KinomeScan ERK1” value (ERK1) was 100 and the “KinomeScan MEK6” value (MEK6) was 100.

— article PMC5078040 (Oncotarget, 2016)
